Our source for the half-life values is PubChem BioAssay AID1508591.

The term half-life denotes the time in which the quantity being followed falls by half. Low readings indicate fast loss, high ones slow loss.

For the series the following is noted: rat; liver microsomes; pH 7.4; 15.0 min; 1.0 µM. Background: Liver microsomes are vesicles of endoplasmic reticulum, rich in cytochrome P450 enzymes.
`OC(CCN1CCCCC1)c1ccc(-c2ccccc2)cc1` (stereo not given) gave a half-life of 4.73 min. The value for `Cc1ccc(NS(=O)(=O)c2ccc(C(=O)Nc3nc(-c4ccccc4)cs3)cc2)cc1` was 6.5 min; that for `COc1ccc(Nc2cc3c(nc2OC)nc(CCc2ccccc2)n3C)cn1` was 19.5 min.

`CC1CN(c2ccc(Nc3nc(-c4ccncc4)nc4ccccc34)cc2F)CC(C)O1` (stereo not given) yielded a half-life of 5 min.

In the case of `O=C(O)c1ccncc1Nc1nn(CCN2CCC(F)(F)CC2)c2ccc(F)cc12`, the half-life is 22.2 min.

As for `CNc1ncc(-c2cccc3ccccc23)o1`, the half-life is 9.9 min. The value for `O=C1CCCC2=C1C1(CCCC1)N=C(Nc1nc3ccccc3o1)N2` was 2.7 min; that for `O=C(Nc1ccc(Br)cc1)c1ccc(F)c(S(=O)(=O)NC2CCCCCC2)c1` was 3.66 min. The molecule `O=C(Nc1nc(-c2ccccc2)cs1)c1ccncc1NS(=O)(=O)c1cccc(Cl)c1` returned a half-life of 5 min. The figure for `COc1ccccc1S(=O)(=O)Nc1cnccc1C(=O)Nc1nc(-c2ccccc2)cs1` is 16 min; for `COc1ccc(-c2nc3ccccc3c(=O)n2Cc2ccccc2)cc1COc1ccc(NC(C)=O)cc1` it is 3.16 min.

In the case of `Nc1cc(CN2C(=O)c3ccccc3C2=O)cc(Cl)c1O`, the half-life was found to be 11.7 min. The value for `CC(C)(C)OC(=O)N[C@@H](Cc1ccc(OS(=O)(=O)c2cccc3cnccc23)cc1)C(=O)N1CCCN(C(=O)OC(C)(C)C)CC1` was 2 min. In turn, `CCOc1ccc(/C=C/c2nc3ccccc3n2S(=O)(=O)c2cccc(Cl)c2)cc1` gave a half-life of over 30 min. As for `FC(F)(F)c1ccccc1-c1nc(NCc2ccc(Cl)cc2)c2ccccc2n1`, the half-life is over 30 min. In turn, `NC(=O)C1CCN(c2nc(-c3ccc(Br)cc3)cs2)CC1` had a half-life of 2.06 min. The figure for `O=C(O)Cn1c(C(=O)Nc2nc(-c3ccccc3Cl)cs2)cc2ccccc21` is over 30 min. The value for `Cc1noc(C)c1-c1ccc(Nc2nc(-c3ccncc3)nc3ccccc23)cc1F` was 10 min. The figure for `COc1ccc(-c2cc(C)nc3c(-c4ccc(OC)c(OC)c4)c(C)nn23)cc1` is over 30 min; for `O=C(N/N=C/c1ccc(Sc2ccccn2)o1)c1ccncc1` it is over 30 min; for `CCOC(=O)Nc1cc(-c2ccc(C)c(NS(C)(=O)=O)c2)nn2c(C)nnc12` it is over 30 min. Turning to `COc1ccc(OCCN2CCN(C(=O)c3ccc(OC)cc3)CC2)cc1`, the half-life is over 30 min.

As for `C[C@@H](NC(=O)c1ncnc(N)c1Cl)c1ncc(C(=O)Nc2cc(C(F)(F)F)c(Cl)cn2)s1`, the half-life is over 30 min.

As to `N#Cc1nc(-c2cccc3ccccc23)oc1NC1CNC1`, the half-life was over 30 min. `Cc1ccc(S(=O)(=O)Nc2ccccc2C(=O)Nc2ccc(-c3ccccc3)cc2)cc1`: the half-life came out at 7.3 min.

In turn, `CCOc1ccc(-c2nc(SCC(=O)Nc3ccc(C)c(C)c3)n3[nH]c(=O)cc3n2)cc1` gave a half-life of 19.9 min. `COc1ccc(C[C@@H]2C(=O)N[C@H](C)C(=O)N(C)[C@@H]3C(=O)N(C)[C@@H](Cc4ccc(O)c(c4)Oc4ccc(cc4)[C@H]3O)C(=O)N[C@@H](C)C(=O)N[C@H](C)C(=O)N2C)cc1` registered a half-life of 27.6 min. In turn, `COc1cc(F)ccc1-c1nc(-c2c(C)noc2C)cc2c1cc(C)n2C` had a half-life of 21.6 min. For the molecule `COc1ccc2[nH]c(=O)c(-c3noc(-c4ccccc4)n3)cc2c1`, the half-life is over 30 min.

`Cc1ccc(N(C)S(=O)(=O)c2ccc(-c3cnc(C4CC4)o3)cc2)cc1` came in with a half-life of 3.6 min. The value for `COc1ccccc1Nc1cnc2ccc(-c3ccc(OC)c(OC)c3)nn12` was 6.22 min; that for `COc1ccccc1C(=O)N1CCc2cc(-c3nc(NC(=O)Cc4ccc5c(c4)OCO5)sc3C)ccc21` was 9.6 min. For `O=c1c(-c2ccc(O)cc2)coc2cc(O)ccc12`, the half-life is over 30 min. On to `O=c1[nH]c(C2CCCN(CC3CCCCC3)C2)nn1-c1ccc(Cl)cc1` (stereo not given), for which the half-life was over 30 min. As for `Nc1c(-c2ccccc2)cc[nH]c1=O`, the half-life was over 30 min. The figure for `c1ccc(Nc2cc3c(cn2)CN(Cc2cccs2)CCN3)cc1` is 1.77 min; for `CCOc1ccc(CCNC(=O)c2cc3sccc3n2Cc2ccncc2)cc1OCC` it is 1.6 min. On to `COc1ccccc1C(=O)NC1CCCc2c1[nH]c1c(Cl)cccc21` (stereo not given), for which the half-life was 2.31 min. Molecule `O=C(Nc1nc(-c2ccccc2)cs1)c1ccncc1NS(=O)(=O)c1cccs1` returned a half-life of 12 min.

In turn, `COc1ccc(NC(=O)c2ccccc2)cc1S(=O)(=O)Nc1ccc(Br)cc1` came in with a half-life of 7.7 min. With `O=C1C(c2ccc(C(F)(F)F)cc2)=C(Nc2ccc(Cl)cc2)c2ccccc21`, the half-life amounted to 29.2 min.

In turn, `Cc1ccc(S(=O)(=O)Nc2ccccc2C(=O)Nc2ccc(-c3ccccc3)nn2)cc1` gave a half-life of 4 min. In turn, `CC1(C)CC(=O)C2=C(C1)NC(Nc1nc3ccccc3o1)=NC2c1ccccc1Cl` (stereo not given) yielded a half-life of 11 min. For `CCCCn1cnc2cc(NC(=O)c3cc(OC)c(OC)c(OC)c3)ccc21`, the half-life is over 30 min. The figure for `O=C(NCCCO)c1ccc(-c2ncc3cnc(-c4cccc(F)c4)cn23)cc1` is over 30 min; for `CC(=O)NC(c1cccs1)c1cc(Br)c2cccnc2c1O` (stereo not given) it is 5.21 min; for `COc1ccc(-c2ccc3ncc4c(c3c2)n(-c2ccc(N3CCNCC3)c(C(F)(F)F)c2)c(=O)n4C)cn1` it is over 30 min. The value for `CCc1cccc(NS(=O)(=O)c2ccc3c(c2)CC(C)N3C(=O)C2CC2)c1` (stereo not given) was 1.96 min; that for `Cc1ccc(Nc2nc(C)c(NC(=O)c3ccc(C)cc3)c(Nc3ccc(C)cc3)n2)cc1` was 20.1 min; that for `Clc1ccc(C2=Nn3c(nnc3-c3ccncc3)SC2)cc1` was 9.1 min. The value for `Oc1ccc(CN2CC(CNc3ccccc3)C3(C2)CN(c2ccccc2)C3)cc1` (stereo not given) was 3.01 min.

Take `Fc1ccc(Cl)cc1-c1nc(Nc2ccncc2)c2nccnc2n1`: the half-life was found to be 15.9 min. Molecule `CCN(CC)CCOc1ccc(Cc2ccccc2)cc1` registered a half-life of 1.73 min.

`O=[S+]([O-])(Nc1cnc2ccccc2c1)c1ccc(NCc2ccc(Cl)cc2O)cc1` yielded a half-life of 18 min. The figure for `CC(=O)NC1CCN(c2nc(-c3ccc(Br)cc3)cs2)CC1` is over 30 min; for `CS(=O)(=O)c1cccc(-c2csc(N3CCC(C(N)=O)CC3)n2)c1` it is over 30 min; for `COc1ccccc1-c1csc(N2CCC(C(N)=O)CC2)n1` it is 15 min. With `N#Cc1ccc(C(=O)Nc2ccc(Cl)c(-c3nc4cc(Cl)ccc4o3)c2)c(F)c1`, the half-life is over 30 min. As for `CC(C)(Nc1nc(-c2ccccc2C(F)(F)F)nc2ccccc12)c1ccc(-c2cccc(C(F)(F)F)c2)cc1`, the half-life is over 30 min. The value for `CC1=C(C(=O)Nc2ccccc2)C(c2ccccc2Cl)N=C(Nc2nc3ccccc3o2)N1` (stereo not given) was 24 min. `c1ccc(-c2csc3ncnc(Sc4nnn(-c5ccccc5)n4)c23)cc1`: the half-life turned out to be 1.5 min. The molecule `COc1ccc(OC)c(-c2cc(C(=O)N3CCN(c4ncccn4)CC3)c3ccccc3n2)c1` gave a half-life of 7.87 min. As for `Cc1ccc(S(=O)(=O)Nc2cnccc2C(=O)Nc2nc(-c3ccc(Cl)c(Cl)c3)cs2)cc1`, the half-life was over 30 min. The figure for `Fc1ccc(Nc2ccnc(-c3ccncc3)n2)cc1F` is 13 min. `CCCCCCN(CCCCCC)C(=O)Cc1c(-c2ccc(F)cc2)[nH]c2ccccc12` displayed a half-life of 2.5 min.
